{"source": "patent US20050113274A1", "about": "“Hydrocarbyl aminohydrocarbonoates and aminohydrocarbonol hydrocarbonoates as antimicrobial and antiviral agents” (priority 2003, published 2005)", "key": {"Streptococcus aureus": {"tested_on": "Streptococcus aureus", "experiment": "USP Antimicrobial Preservatives Effectiveness Test, S. aureus", "format": "cell-based", "settings": "DDAIP formulation of Example 1", "description": "(§1) Thus, in the presence of Pseudomonas aeruginosa, […], Candida albicans, Streptococcus aureus, and Escherichia coli after 7 days of study less than 10 cfu/ml remained, with Aspergillus niger this value was observed after 21 days of study."}, "microorganism growth": {"tested_on": "microorganism growth", "experiment": "Visual microorganism growth testing of formulations", "format": "cell-based", "settings": "room temperature and refrigerator conditions; test period of 2 months", "protocol": "Additional formulations (such as in the examples that follow) were prepared and submitted to visual microorganism growth testing at room temperature (RT) and refrigerator conditions. The examples given below constitute some typical samples of various formulations prepared and tested."}, "Pseudomonas aeruginosa": {"tested_on": "Pseudomonas aeruginosa", "experiment": "USP Antimicrobial Preservatives Effectiveness Test, P. aeruginosa", "format": "cell-based", "settings": "DDAIP formulation of Example 1", "description": "as §1"}, "Escherichia coli": {"tested_on": "Escherichia coli", "experiment": "USP Antimicrobial Preservatives Effectiveness Test, E. coli", "format": "cell-based", "settings": "DDAIP formulation of Example 1", "description": "as §1"}, "stratum corneum proteins": {"tested_on": "stratum corneum proteins", "settings": "FIG. 1; compared with control; cited from earlier work"}, "Candida albicans": {"tested_on": "Candida albicans", "experiment": "USP Antimicrobial Preservatives Effectiveness Test, C. albicans", "format": "cell-based", "settings": "DDAIP formulation of Example 1", "description": "as §1"}, "Aspergillus niger": {"tested_on": "Aspergillus niger", "experiment": "USP Antimicrobial Preservatives Effectiveness Test, A. niger", "format": "cell-based", "settings": "DDAIP formulation of Example 1", "description": "as §1"}}, "data": [{"smiles": "CCCCCCCCCCCCOC(=O)C(C)N(C)C", "note": "(stereo not shown) [DDAIP, Dodecyl 2-(N,N-dimethylamino)propionate]", "values": [{"measurement": "S. aureus (cfu/ml), 7 days", "setting": "Streptococcus aureus; 7 days", "result": "<10", "unit": "cfu/ml"}, {"measurement": "S. aureus (cfu/ml), 14 days", "setting": "Streptococcus aureus; 14 days", "result": "<10", "unit": "cfu/ml"}, {"measurement": "S. aureus (cfu/ml), 21 days", "setting": "Streptococcus aureus; 21 days", "result": "<10", "unit": "cfu/ml"}, {"measurement": "S. aureus (cfu/ml), 28 days", "setting": "Streptococcus aureus; 28 days", "result": "<10", "unit": "cfu/ml"}, {"measurement": "S. aureus (cfu/ml), Time Zero", "setting": "Streptococcus aureus; day zero count", "result": "6.90E+05", "unit": "cfu/ml"}, {"measurement": "visual microorganism growth", "setting": "microorganism growth", "result": "no growth was observed"}, {"measurement": "P. aeruginosa (cfu/ml), 7 days", "setting": "Pseudomonas aeruginosa; 7 days", "result": "<10", "unit": "cfu/ml"}, {"measurement": "P. aeruginosa (cfu/ml), 14 days", "setting": "Pseudomonas aeruginosa; 14 days", "result": "<10", "unit": "cfu/ml"}, {"measurement": "P. aeruginosa (cfu/ml), 21 days", "setting": "Pseudomonas aeruginosa; 21 days", "result": "<10", "unit": "cfu/ml"}, {"measurement": "P. aeruginosa (cfu/ml), 28 days", "setting": "Pseudomonas aeruginosa; 28 days", "result": "<10", "unit": "cfu/ml"}, {"measurement": "P. aeruginosa (cfu/ml), Time Zero", "setting": "Pseudomonas aeruginosa; day zero count", "result": "3.55E+05", "unit": "cfu/ml"}, {"measurement": "E. coli (cfu/ml), 7 days", "setting": "Escherichia coli; 7 days", "result": "<1", "unit": "cfu/ml"}, {"measurement": "E. coli (cfu/ml), 14 days", "setting": "Escherichia coli; 14 days", "result": "<1", "unit": "cfu/ml"}, {"measurement": "E. coli (cfu/ml), Time Zero", "setting": "Escherichia coli; day zero count", "result": "5.70E+05", "unit": "cfu/ml"}, {"measurement": "number of free thiol groups of stratum corneum proteins (effect on protein domain)", "setting": "stratum corneum proteins", "result": "effect on the protein domain"}, {"measurement": "C. albicans (cfu/ml), 7 days", "setting": "Candida albicans; 7 days", "result": "<10", "unit": "cfu/ml"}, {"measurement": "C. albicans (cfu/ml), 14 days", "setting": "Candida albicans; 14 days", "result": "<10", "unit": "cfu/ml"}, {"measurement": "C. albicans (cfu/ml), Time Zero", "setting": "Candida albicans; day zero count", "result": "3.45E+05", "unit": "cfu/ml"}, {"measurement": "A. niger (cfu/ml), 7 days", "setting": "Aspergillus niger; 7 days", "result": "1.40E+03", "unit": "cfu/ml"}, {"measurement": "A. niger (cfu/ml), 14 days", "setting": "Aspergillus niger; 14 days", "result": "3.00E+02", "unit": "cfu/ml"}, {"measurement": "A. niger (cfu/ml), Time Zero", "setting": "Aspergillus niger; day zero count", "result": "3.05E+05", "unit": "cfu/ml"}]}, {"smiles": "CCO", "note": "[ethanol, reference compound]", "values": [{"measurement": "number of free thiol groups of stratum corneum proteins (effect on protein domain)", "setting": "stratum corneum proteins", "result": "affects protein domain"}]}]}
